From ChEMBL document CHEMBL5365497, “Developing Novel Coumarin-Containing Azoles Antifungal Agents by the Scaffold Merging Strategy for Treating Azole-Resistant Candidiasis” (J Med Chem, 2023)
Converted amounts (≈) assume the structure as drawn.

Experiments:
Format in all cases: functional
[1] = tested on: Candida parapsilosis; experiment: Antifungal activity against Candida parapsilosis assessed as fungal growth inhibition by CLSI based microdilution method; conditions: Lodderomyces parapsilosis
[2] = tested on: Candida tropicalis; experiment: Antifungal activity against Candida tropicalis assessed as fungal growth inhibition by CLSI based microdilution method
[3] = tested on: Candida albicans; experiment: Antifungal activity against Candida albicans CPCC400616 assessed as fungal growth inhibition by CLSI based microdilution method
[4] = tested on: Candida albicans; experiment: Antifungal activity against Candida albicans SC5314 assessed as fungal growth inhibition by CLSI based microdilution method
[5] = tested on: Pichia kudriavzevii; experiment: Antifungal activity against Pichia kudriavzevii assessed as fungal growth inhibition by CLSI based microdilution method
[6] = tested on: Cryptococcus neoformans; experiment: Antifungal activity against Cryptococcus neoformans assessed as fungal growth inhibition by CLSI based microdilution method
[7] = tested on: Nakaseomyces glabratus; experiment: Antifungal activity against Candida glabrata assessed as fungal growth inhibition by CLSI based microdilution method
[8] = tested on: Candida albicans; experiment: Antifungal activity against fluconazole-resistant Candida albicans 904 assessed as fungal growth inhibition by CLSI based microdilution method
[9] = tested on: Candida albicans; experiment: Antifungal activity against fluconazole-resistant Candida albicans CaR assessed as fungal growth inhibition by CLSI based microdilution method
[10] = tested on: Candida albicans; experiment: Antifungal activity against fluconazole-resistant Candida albicans 901 assessed as fungal growth inhibition by CLSI based microdilution method
[11] = tested on: Candida albicans; experiment: Antifungal activity against fluconazole-resistant Candida albicans 632 assessed as fungal growth inhibition by CLSI based microdilution method
[12] = tested on: Candida albicans; experiment: Antifungal activity against fluconazole-resistant Candida albicans 17# assessed as fungal growth inhibition by CLSI based microdilution method

| Compound | MIC [1] [mg/L] | MIC [2] [mg/L] | MIC [3] [mg/L] | MIC [4] [mg/L] | MIC [5] [mg/L] | MIC [6] [mg/L] | MIC [7] [mg/L] | MIC [8] [mg/L] | MIC [9] [mg/L] | MIC [10] [mg/L] | MIC [11] [mg/L] | MIC [12] [mg/L] |
| --- | --- | --- | --- | --- | --- | --- | --- | --- | --- | --- | --- | --- |
| O=c1ccc2cc(COC(Cn3cncn3)c3ccc(Cl)cc3Cl)ccc2o1 (stereo not given) | 2 (≈ 4.8 µM) | 32 (≈ 76.9 µM) | 4 (≈ 9.61 µM) | 0.25 (≈ 0.601 µM) | 16 (≈ 38.4 µM) | 32 (≈ 76.9 µM) | 32 (≈ 76.9 µM) |  |  |  |  |  |
| O=c1ccc2ccc(COC(Cn3ccnc3)c3ccc(F)cc3)cc2o1 (stereo not given) | 16 (≈ 43.9 µM) | 4 (≈ 11 µM) | 2 (≈ 5.49 µM) | 0.5 (≈ 1.37 µM) | 32 (≈ 87.8 µM) | 4 (≈ 11 µM) | 64 (≈ 176 µM) | 32 (≈ 87.8 µM) | 128 (≈ 351 µM) | 64 (≈ 176 µM) | 32 (≈ 87.8 µM) | 128 (≈ 351 µM) |
| O=c1oc2ccccc2cc1COC(Cn1cncn1)c1ccc(F)cc1F (stereo not given) | 2 (≈ 5.22 µM) | 64 (≈ 167 µM) | 8 (≈ 20.9 µM) | 0.25 (≈ 0.652 µM) | 16 (≈ 41.7 µM) | 32 (≈ 83.5 µM) | 8 (≈ 20.9 µM) |  |  |  |  |  |
| O=c1oc2ccc([N+](=O)[O-])cc2cc1COC(Cn1ccnc1)c1ccc(F)cc1F (stereo not given) | 64 (≈ 150 µM) | 128 (≈ 300 µM) | > 128 | > 128 | 128 (≈ 300 µM) | 64 (≈ 150 µM) | 32 (≈ 74.9 µM) |  |  |  |  |  |
| O=c1oc2c(Cl)cc(Cl)cc2cc1COC(Cn1ccnc1)c1ccc(Cl)cc1Cl (stereo not given) | > 128 | > 128 | > 128 | 128 (≈ 264 µM) | > 128 | 16 (≈ 33 µM) | > 128 |  |  |  |  |  |
| O=c1ccc2ccc(COC(Cn3cnnn3)c3ccc(Cl)cc3Cl)cc2o1 (stereo not given) | 64 (≈ 153 µM) | 128 (≈ 307 µM) | > 128 | > 128 | > 128 | 32 (≈ 76.7 µM) | 64 (≈ 153 µM) |  |  |  |  |  |
| OB1OCc2cc(F)ccc21 [TAVABOROLE] |  |  |  |  |  |  |  | 16 (≈ 105 µM) | 16 (≈ 105 µM) | 32 (≈ 211 µM) | 16 (≈ 105 µM) | 32 (≈ 211 µM) |
| O=c1ccc2cc(COC(Cn3cnnn3)c3ccc(Cl)cc3Cl)ccc2o1 (stereo not given) | 32 (≈ 76.7 µM) | 32 (≈ 76.7 µM) | 1 (≈ 2.4 µM) | 2 (≈ 4.79 µM) | 64 (≈ 153 µM) | 128 (≈ 307 µM) | 16 (≈ 38.3 µM) |  |  |  |  |  |
| O=c1ccc2ccc(COC(Cn3ccnn3)c3ccc(F)cc3F)cc2o1 (stereo not given) | > 128 | 4 (≈ 10.4 µM) | > 128 | > 128 | > 128 | > 128 | 128 (≈ 334 µM) |  |  |  |  |  |
| O=c1ccc2cc(COC(Cn3ccnn3)c3ccc(Cl)cc3Cl)ccc2o1 (stereo not given) | 64 (≈ 154 µM) | 64 (≈ 154 µM) | > 128 | 128 (≈ 307 µM) | 128 (≈ 307 µM) | 128 (≈ 307 µM) | 64 (≈ 154 µM) |  |  |  |  |  |
| O=c1ccc2cc(COC(Cn3ccnc3)c3ccc(F)cc3F)ccc2o1 (stereo not given) | 2 (≈ 5.23 µM) | 2 (≈ 5.23 µM) | 0.5 (≈ 1.31 µM) | 0.25 (≈ 0.654 µM) | 8 (≈ 20.9 µM) | 32 (≈ 83.7 µM) | 16 (≈ 41.8 µM) | 32 (≈ 83.7 µM) | 64 (≈ 167 µM) | 32 (≈ 83.7 µM) | 64 (≈ 167 µM) | 4 (≈ 10.5 µM) |
| O=c1oc2ccc(F)cc2cc1COC(Cn1ccnc1)c1ccc(F)cc1F (stereo not given) | 0.5 (≈ 1.25 µM) | 8 (≈ 20 µM) | 1 (≈ 2.5 µM) | 1 (≈ 2.5 µM) | 4 (≈ 9.99 µM) | 0.5 (≈ 1.25 µM) | 2 (≈ 5 µM) |  |  |  |  |  |
| O=c1ccc2cc(COC(Cn3cnnn3)c3ccc(F)cc3F)ccc2o1 (stereo not given) | 16 (≈ 41.6 µM) | 0.5 (≈ 1.3 µM) | 1 (≈ 2.6 µM) | 2 (≈ 5.2 µM) | 128 (≈ 333 µM) | 64 (≈ 167 µM) | 16 (≈ 41.6 µM) |  |  |  |  |  |
| O=c1oc2ccc(Cl)cc2cc1COC(Cn1ccnc1)c1ccc(F)cc1F (stereo not given) | 16 (≈ 38.4 µM) | 128 (≈ 307 µM) | 32 (≈ 76.8 µM) | 0.25 (≈ 0.6 µM) | 128 (≈ 307 µM) | 16 (≈ 38.4 µM) | 128 (≈ 307 µM) |  |  |  |  |  |
| O=c1ccc2ccc(COC(Cn3ccnc3)c3ccc(F)cc3F)cc2o1 (stereo not given) | 16 (≈ 41.8 µM) | 8 (≈ 20.9 µM) | 4 (≈ 10.5 µM) | 0.25 (≈ 0.654 µM) | 64 (≈ 167 µM) | 64 (≈ 167 µM) | 64 (≈ 167 µM) | 32 (≈ 83.7 µM) | 128 (≈ 335 µM) | 64 (≈ 167 µM) | 32 (≈ 83.7 µM) | 128 (≈ 335 µM) |
| CCC(C)n1ncn(-c2ccc(N3CCN(c4ccc(OCC5COC(Cn6cncn6)(c6ccc(Cl)cc6Cl)O5)cc4)CC3)cc2)c1=O (stereo not given) [ITRACONAZOLE] |  |  |  |  |  |  |  | > 128 | 64 (≈ 90.7 µM) | > 128 | 64 (≈ 90.7 µM) | 128 (≈ 181 µM) |
| O=c1oc2ccccc2cc1COC(Cn1cncn1)c1ccc(Cl)cc1Cl (stereo not given) | 4 (≈ 9.61 µM) | 16 (≈ 38.4 µM) | 4 (≈ 9.61 µM) | 0.25 (≈ 0.601 µM) | 32 (≈ 76.9 µM) | 16 (≈ 38.4 µM) | 8 (≈ 19.2 µM) |  |  |  |  |  |
